Laboratory results taken from PubChem BioAssay (NCI).
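Five compound concentrations were applied to cells in 96-well plates for 48 hours; endpoints were derived by simple linear interpolation of the resulting dose-response curve. GI50 marks 50% less growth. TGI marks complete inhibition of growth.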

Key:
Experiment in all cases: DTP human tumour cell line panel, 48 h
786-0 renal = tested on: 786-0 renal
COLO 205 colon = tested on: COLO 205 colon
HL-60(TB) leukemia = tested on: HL-60(TB) leukemia
MCF7 breast = tested on: MCF7 breast
SK-OV-3 ovarian = tested on: SK-OV-3 ovarian
SN12C renal = tested on: SN12C renal
SNB-19 CNS = tested on: SNB-19 CNS
SR leukemia = tested on: SR leukemia
UO-31 renal = tested on: UO-31 renal

SMILES | GI50 (786-0 renal) [µM] | TGI (786-0 renal) [µM] | GI50 (COLO 205 colon) [µM] | TGI (COLO 205 colon) [µM] | GI50 (HL-60(TB) leukemia) [µM] | TGI (HL-60(TB) leukemia) [µM] | GI50 (MCF7 breast) [µM] | TGI (MCF7 breast) [µM] | GI50 (SK-OV-3 ovarian) [µM] | TGI (SK-OV-3 ovarian) [µM] | GI50 (SN12C renal) [µM] | TGI (SN12C renal) [µM] | GI50 (SNB-19 CNS) [µM] | TGI (SNB-19 CNS) [µM] | GI50 (SR leukemia) [µM] | TGI (SR leukemia) [µM] | GI50 (UO-31 renal) [µM] | TGI (UO-31 renal) [µM]
COc1ccc(C(c2cc(OC)c(OC)c(OC)c2)n2ccnc2)cc1O (configuration not stated) | 0.369 | > 100 | 0.361 | 1.77 | 0.229 | 0.628 | 0.339 | > 100 | 0.465 | > 100 | 0.91 | > 100 | 0.532 | > 100 | 0.182 | > 100 | 0.883 | > 100
COC(=O)C1CCc2c1c(=O)n1c([nH]c3ccccc31)c2C#N (configuration not stated) | – | > 100 | – | > 100 | – | > 100 | – | – | – | > 100 | – | – | – | > 100 | – | – | – | > 100
Cn1cc(C(=O)c2ccccc2)c2ccccc2c1=O | – | > 100 | – | > 100 | – | > 100 | – | – | – | > 100 | – | > 100 | – | – | – | > 100 | – | –
CN(C)C=Nc1ccn(CCO)c(=O)n1 | – | > 100 | – | > 100 | – | > 100 | – | – | – | > 100 | – | > 100 | – | > 100 | – | > 100 | – | > 100
O=C1NC(Cc2ccc(O)cc2)C(=O)N2CCCC12 (configuration not stated) | – | > 100 | – | > 100 | – | > 100 | – | – | – | > 100 | – | > 100 | – | > 100 | – | > 100 | – | > 100
O=C(NCCCCCCCCCCCCNC(=O)c1cccc2ccccc12)c1cccc2ccccc12 | – | > 71.7 | – | > 100 | – | > 80.1 | – | – | – | > 66.8 | – | > 100 | – | > 73.6 | – | > 100 | – | > 61
CC(=O)OCC1OC(n2cc(F)c(=O)[nH]c2=O)C(NC(=O)N(CCCl)N=O)C(OC(C)=O)C1OC(C)=O (configuration not stated) | – | > 100 | – | > 100 | – | > 100 | – | – | – | > 100 | – | > 100 | – | > 100 | – | > 100 | – | > 100
CCC(C)CCOC(=O)c1ccc(N=Cc2ccc(C=Nc3ccc(C(=O)OCCC(C)CC)cc3)cc2)cc1 (configuration not stated) | – | > 100 | – | > 100 | – | > 100 | – | – | – | > 100 | – | > 100 | – | > 100 | – | > 100 | – | > 100
CC1=Nc2ccccc2S/C1=C(/C)NNS(=O)(=O)c1ccc(C)cc1 | – | > 100 | – | > 100 | – | > 100 | – | – | – | > 100 | – | > 100 | – | > 100 | – | > 100 | – | > 100
Cn1c2c(c3ccccc31)CCN(CCCCN1CCCCC1)C2=O | – | > 100 | – | > 100 | – | > 100 | – | – | – | > 100 | – | > 100 | – | > 100 | – | – | – | > 100
COC(=O)CCC(NC(=S)N/N=C(\C)c1cnc2ccccc2n1)C(=O)OC (configuration not stated) | – | > 100 | – | 5.37 | – | 9.3 | – | – | – | > 100 | – | > 100 | – | > 100 | – | 42.8 | – | > 100
CN1c2ccccc2N(C(=O)c2ccc([N+](=O)[O-])cc2)C(CC(=O)O)c2cccn21 (configuration not stated) | – | > 100 | – | > 100 | – | > 100 | – | – | – | > 100 | – | > 100 | – | > 100 | – | – | – | > 100
CC(=O)O[C@H]1C(=O)[C@@]2(C)C(C(OC(=O)c3ccccc3)[C@]3(O)C[C@H](OC(=O)C(OC(=O)CCCC(=O)NCCCN(C)C)C(NC(=O)c4ccccc4)c4ccccc4)C(C)=C1C3(C)C)C1(OC(C)=O)COC1C[C@@H]2O (some centres not stated) | – | 11 | – | 0.0147 | – | 0.0832 | – | 48.5 | – | 1.45 | – | 75.5 | – | > 100 | – | 58.2 | – | 64
C[C@@H](NC1CCCC[C@H]1O)c1ccccc1 (some centres not stated) | – | > 100 | – | > 100 | – | > 100 | – | – | – | > 100 | – | > 100 | – | > 100 | – | – | – | > 100
O=C1CSCc2sccc21 | – | > 100 | – | > 100 | – | > 100 | – | > 100 | – | > 100 | – | > 100 | – | > 100 | – | > 100 | – | > 100
Nc1ncnc2c1ncn2[C@]1(CO)C=C(CO)C(O)C1O (some centres not stated) | – | > 100 | – | > 100 | – | > 100 | – | – | – | > 100 | – | > 100 | – | > 100 | – | > 100 | – | –
